Reference: patent publication US20110071108A1, “Beta-Cyclodextrin Derivatives as Antibacterial Agents” (Pinnacle Pharmaceuticals, Inc., priority 2005, published 2011)

Legend:
Test in all cases: Bacterial panel testing, MIC by broth microdilution
Format in all cases: cell-based
Conditions in all cases: 20-24 hours growth
[1] = test system: Pseudomonas aeruginosa
Experimental: (§1) One to three colonies of bacteria were picked from an Mueller-Hinton or Brain Heart infusion agar plate (depending on the bacterial strain) and transferred to 3 ml Mueller-Hinton broth or Brain Heart infusion media (depending on the bacterial strain). Bacteria were allowed to grow for 2-4 hours in an incubator at 37° C. Bacteria-inoculated media were dispersed in 0.9% saline to match McFarland standard density. 100 μl standardized inoculation was added to 20 ml media (dilution 1). 10 μl of the new dilution was added to 990 μl media and mixed (dilution 2). 10 μl of dilution 2 was spread on an agar plate and allowed to grow overnight. Colonies were then […].
(§2) Test compound was diluted to 10 μg/ml in dimethylsulfoxide. Four μl of Rifampicin antibiotic was loaded into row H, column 2.
(§3) All wells were then filled with 100 μl of inoculated media (dilution 1 from Example 1). A further 100 μl of the inoculated media was then added to column 2 and the contents are pipetted to thoroughly mix the contents. A full 100 μl was then transferred from column 2 and mixed into column 3. This process was continued from left to right until columns 2-12 were serially diluted, and the final draw from column 12 was discarded. The plates were covered with 3M sealing tape (plates containing Enterococcus faecium were sealed with Air Pore sealing tape) and allowed to grow for 20-24 hours. Cytotoxic wells (clear wells) are then scored and the potency of the compound was determined.

[2] = test system: Enterococcus faecium
Experimental: as §1, §2, §3

[3] = test system: Staphylococcus aureus
Experimental: as §1, §2, §3

[4] = test system: Eschericia coli
Experimental: as §1, §2, §3

[5] = test system: Salmonella choleraesuis
Experimental: as §1, §2, §3

Cl.Cl.Cl.Cl.Cl.Cl.Cl.NCCCCCSC[C@H]1O[C@@H]2O[C@H]3[C@H](O)[C@@H](O)[C@@H](O[C@H]4[C@H](O)[C@@H](O)[C@@H](O[C@H]5[C@H](O)[C@@H](O)[C@@H](O[C@H]6[C@H](O)[C@@H](O)[C@@H](O[C@H]7[C@H](O)[C@@H](O)[C@@H](O[C@H]8[C@H](O)[C@@H](O)[C@@H](O[C@H]1[C@H](O)[C@H]2O)O[C@@H]8CSCCCCCN)O[C@@H]7CSCCCCCN)O[C@@H]6CSCCCCCN)O[C@@H]5CSCCCCCN)O[C@@H]4CSCCCCCN)O[C@@H]3CSCCCCCN
>200 µg/mL: MIC PA [1] | MIC EF [2] | MIC SA [3] | MIC EC [4] | MIC SC [5]

CC(C)(C)OC(=O)NCCCC[C@H](NC(=O)[C@@H](N)CCCCNC(=O)OC(C)(C)C)C(=O)NCC1OC2OC3C(CNC(=O)[C@H](CCCCNC(=O)OC(C)(C)C)NC(=O)[C@@H](N)CCCCNC(=O)OC(C)(C)C)OC(OC4C(CNC(=O)[C@H](CCCCNC(=O)OC(C)(C)C)NC(=O)[C@@H](N)CCCCNC(=O)OC(C)(C)C)OC(OC5C(CNC(=O)[C@H](CCCCNC(=O)OC(C)(C)C)NC(=O)[C@@H](N)CCCCNC(=O)OC(C)(C)C)OC(OC6C(CNC(=O)[C@H](CCCCNC(=O)OC(C)(C)C)NC(=O)[C@@H](N)CCCCNC(=O)OC(C)(C)C)OC(OC7C(CNC(=O)[C@H](CCCCNC(=O)OC(C)(C)C)NC(=O)[C@@H](N)CCCCNC(=O)OC(C)(C)C)OC(OC8C(CNC(=O)[C@H](CCCCNC(=O)OC(C)(C)C)NC(=O)[C@@H](N)CCCCNC(=O)OC(C)(C)C)OC(OC1C(O)C2O)C(O)C8O)C(O)C7O)C(O)C6O)C(O)C5O)C(O)C4O)C(O)C3O (stereo partly shown)
>200 µg/mL: MIC PA [1] | MIC EF [2] | MIC SA [3] | MIC EC [4] | MIC SC [5]

Cl.Cl.Cl.Cl.Cl.Cl.Cl.N[C@@H](Cc1ccc(O)cc1)C(=O)NC[C@H]1O[C@@H]2O[C@H]3[C@H](O)[C@@H](O)[C@@H](O[C@H]4[C@H](O)[C@@H](O)[C@@H](O[C@H]5[C@H](O)[C@@H](O)[C@@H](O[C@H]6[C@H](O)[C@@H](O)[C@@H](O[C@H]7[C@H](O)[C@@H](O)[C@@H](O[C@H]8[C@H](O)[C@@H](O)[C@@H](O[C@H]1[C@H](O)[C@H]2O)O[C@@H]8CNC(=O)[C@@H](N)Cc1ccc(O)cc1)O[C@@H]7CNC(=O)[C@@H](N)Cc1ccc(O)cc1)O[C@@H]6CNC(=O)[C@@H](N)Cc1ccc(O)cc1)O[C@@H]5CNC(=O)[C@@H](N)Cc1ccc(O)cc1)O[C@@H]4CNC(=O)[C@@H](N)Cc1ccc(O)cc1)O[C@@H]3CNC(=O)[C@@H](N)Cc1ccc(O)cc1
>200 µg/mL: MIC PA [1] | MIC EF [2] | MIC SA [3] | MIC EC [4] | MIC SC [5]

CCCCCCCCCCCCCCCC[N+]12CC[N+](CC(=O)NCC3OC4OC5C(CNC(=O)C[N+]67CC[N+](CCCCCCCCCCCCCCCC)(CC6)CC7)OC(OC6C(CNC(=O)C[N+]78CC[N+](CCCCCCCCCCCCCCCC)(CC7)CC8)OC(OC7C(CNC(=O)C[N+]89CC[N+](CCCCCCCCCCCCCCCC)(CC8)CC9)OC(OC8C(CNC(=O)C[N+]9%10CC[N+](CCCCCCCCCCCCCCCC)(CC9)CC%10)OC(OC9C(CNC(=O)C[N+]%10%11CC[N+](CCCCCCCCCCCCCCCC)(CC%10)CC%11)OC(OC%10C(CNC(=O)C[N+]%11%12CC[N+](CCCCCCCCCCCCCCCC)(CC%11)CC%12)OC(OC3C(O)C4O)C(O)C%10O)C(O)C9O)C(O)C8O)C(O)C7O)C(O)C6O)C(O)C5O)(CC1)CC2 (stereo not shown)
>200 µg/mL: MIC PA [1] | MIC EF [2] | MIC EC [4] | MIC SC [5]

OC1C2OC(CN3CCN(C4CCCCC4)CC3)C(OC3OC(CN4CCN(C5CCCCC5)CC4)C(OC4OC(CN5CCN(C6CCCCC6)CC5)C(OC5OC(CN6CCN(C7CCCCC7)CC6)C(OC6OC(CN7CCN(C8CCCCC8)CC7)C(OC7OC(CN8CCN(C9CCCCC9)CC8)C(OC8OC(CN9CCN(C%10CCCCC%10)CC9)C(O2)C(O)C8O)C(O)C7O)C(O)C6O)C(O)C5O)C(O)C4O)C(O)C3O)C1O (stereo not shown)
>200 µg/mL: MIC PA [1] | MIC EF [2] | MIC EC [4] | MIC SC [5]

CC(O)C(N)C(=O)NCC1OC2OC3C(CNC(=O)C(N)C(C)O)OC(OC4C(CNC(=O)C(N)C(C)O)OC(OC5C(CNC(=O)C(N)C(C)O)OC(OC6C(CNC(=O)C(N)C(C)O)OC(OC7C(CNC(=O)C(N)C(C)O)OC(OC8C(CNC(=O)C(N)C(C)O)OC(OC1C(O)C2O)C(O)C8O)C(O)C7O)C(O)C6O)C(O)C5O)C(O)C4O)C(O)C3O.Cl.Cl.Cl.Cl.Cl.Cl.Cl (stereo not shown)
>200 µg/mL: MIC PA [1] | MIC SA [3] | MIC EC [4] | MIC SC [5]

Cl.Cl.Cl.Cl.Cl.Cl.Cl.NCCCCCCCSCC1OC2OC3C(CSCCCCCCCN)OC(OC4C(CSCCCCCCCN)OC(OC5C(CSCCCCCCCN)OC(OC6C(CSCCCCCCCN)OC(OC7C(CSCCCCCCCN)OC(OC8C(CSCCCCCCCN)OC(OC1C(O)C2O)C(O)C8O)C(O)C7O)C(O)C6O)C(O)C5O)C(O)C4O)C(O)C3O (stereo not shown)
>200 µg/mL: MIC PA [1] | MIC EF [2] | MIC SA [3] | MIC SC [5]

Cc1ccc(NCC2OC3OC4C(CNc5ccc(C)cc5)OC(OC5C(CNc6ccc(C)cc6)OC(OC6C(CNc7ccc(C)cc7)OC(OC7C(CNc8ccc(C)cc8)OC(OC8C(CNc9ccc(C)cc9)OC(OC9C(CNc%10ccc(C)cc%10)OC(OC2C(O)C3O)C(O)C9O)C(O)C8O)C(O)C7O)C(O)C6O)C(O)C5O)C(O)C4O)cc1 (stereo not shown)
>200 µg/mL: MIC PA [1] | MIC EF [2] | MIC EC [4] | MIC SC [5]

Cl.Cl.Cl.Cl.Cl.Cl.Cl.NCCSCCCSCC1OC2OC3C(CSCCCSCCN)OC(OC4C(CSCCCSCCN)OC(OC5C(CSCCCSCCN)OC(OC6C(CSCCCSCCN)OC(OC7C(CSCCCSCCN)OC(OC8C(CSCCCSCCN)OC(OC1C(O)C2O)C(O)C8O)C(O)C7O)C(O)C6O)C(O)C5O)C(O)C4O)C(O)C3O (stereo not shown)
>200 µg/mL: MIC PA [1] | MIC EF [2] | MIC SA [3] | MIC SC [5]

OC1C2OC(CN3CCCc4ccccc43)C(OC3OC(CN4CCCc5ccccc54)C(OC4OC(CN5CCCc6ccccc65)C(OC5OC(CN6CCCc7ccccc76)C(OC6OC(CN7CCCc8ccccc87)C(OC7OC(CN8CCCc9ccccc98)C(OC8OC(CN9CCCc%10ccccc%109)C(O2)C(O)C8O)C(O)C7O)C(O)C6O)C(O)C5O)C(O)C4O)C(O)C3O)C1O (stereo not shown)
>200 µg/mL: MIC PA [1] | MIC EF [2] | MIC EC [4] | MIC SC [5]

CC(C)(C)OC(=O)NC(CCCN)C(=O)NCC1OC2OC3C(CNC(=O)C(CCCN)NC(=O)OC(C)(C)C)OC(OC4C(CNC(=O)C(CCCN)NC(=O)OC(C)(C)C)OC(OC5C(CNC(=O)C(CCCN)NC(=O)OC(C)(C)C)OC(OC6C(CNC(=O)C(CCCN)NC(=O)OC(C)(C)C)OC(OC7C(CNC(=O)C(CCCN)NC(=O)OC(C)(C)C)OC(OC8C(CNC(=O)C(CCCN)NC(=O)OC(C)(C)C)OC(OC1C(O)C2O)C(O)C8O)C(O)C7O)C(O)C6O)C(O)C5O)C(O)C4O)C(O)C3O.Cl.Cl.Cl.Cl.Cl.Cl.Cl (stereo not shown)
>200 µg/mL: MIC PA [1] | MIC EF [2] | MIC SA [3]

Cl.Cl.Cl.Cl.Cl.Cl.NCCCCCCSCC1OC2OC3C(CSCCCCCCN)OC(OC4C(CSCCCCCCN)OC(OC5C(CSCCCCCCN)OC(OC6C(CSCCCCCCN)OC(OC7C(CSCCCCCCN)OC(OC1C(O)C2O)C(O)C7O)C(O)C6O)C(O)C5O)C(O)C4O)C(O)C3O (stereo not shown)
>200 µg/mL: MIC EF [2] | MIC SA [3] | MIC EC [4] | MIC SC [5]

COC(=O)c1cccc(NCC2OC3OC4C(CNc5cccc(C(=O)OC)c5)OC(OC5C(CNc6cccc(C(=O)OC)c6)OC(OC6C(CNc7cccc(C(=O)OC)c7)OC(OC7C(CNc8cccc(C(=O)OC)c8)OC(OC8C(CNc9cccc(C(=O)OC)c9)OC(OC9C(CNc%10cccc(C(=O)OC)c%10)OC(OC2C(O)C3O)C(O)C9O)C(O)C8O)C(O)C7O)C(O)C6O)C(O)C5O)C(O)C4O)c1 (stereo not shown)
>200 µg/mL: MIC PA [1] | MIC SA [3] | MIC EC [4] | MIC SC [5]

Cl.Cl.Cl.Cl.Cl.Cl.Cl.NC(CO)C(=O)NCC1OC2OC3C(CNC(=O)C(N)CO)OC(OC4C(CNC(=O)C(N)CO)OC(OC5C(CNC(=O)C(N)CO)OC(OC6C(CNC(=O)C(N)CO)OC(OC7C(CNC(=O)C(N)CO)OC(OC8C(CNC(=O)C(N)CO)OC(OC1C(O)C2O)C(O)C8O)C(O)C7O)C(O)C6O)C(O)C5O)C(O)C4O)C(O)C3O (stereo not shown)
>200 µg/mL: MIC PA [1] | MIC SA [3] | MIC EC [4] | MIC SC [5]
